{
  "source": "paper PMC6282790",
  "about": "“Incorporating physiologically relevant mobile phases in micellar liquid chromatography for the prediction of human intestinal absorption” (Biomedical Chromatography, 2018)",
  "origin": "cited, not measured here",
  "key": {"[1]": {"details": "in 0.15 M NaCl"}, "[2]": {"details": "human intestinal absorption"}, "[3]": {"set-up": "method as in https://pubchem.ncbi.nlm.nih.gov/, December 2014; unit not given beside the values", "details": "literature values; ref https://pubchem.ncbi.nlm.nih.gov/, December 2014"}, "[4]": {"details": "ref Castillo‐Garit et al. (2014)"}},
  "note": "Like-named read-outs stand apart in the source and are kept apart here.",
  "data": [
    {"smiles": "C[C@H](CCC(=O)NCCS(=O)(=O)[O-])[C@H]1CC[C@H]2[C@@H]3CC[C@@H]4C[C@H](O)CC[C@]4(C)[C@H]3C[C@H](O)[C@]12C.[Na+]", "note": "[NaTDC, sodium taurodeoxycholate]", "values": [
      {"measurement": "CMC", "setting": "[1]; ref Natalini et al., 2014", "value": 2.4, "unit": "mM"}
    ]},
    {"smiles": "O=C(O)c1ccccc1O", "note": "[Salicylic acid, salicylic acid]", "values": [
      {"measurement": "Experimental. %HIA", "setting": "[2]; ref Raevsky (2004)", "value": 99, "unit": "%"},
      {"measurement": "PSA", "setting": "[3]", "value": 57.5}
    ]},
    {"smiles": "CCCCC1C(=O)N(c2ccccc2)N(c2ccccc2)C1=O", "note": "[Phenylbutazone, phenylbutazone]", "values": [
      {"measurement": "Experimental. %HIA", "setting": "[2]; ref Hou et al. (2007), Veber et al. (2002)", "value": 94, "unit": "%"},
      {"measurement": "PSA", "setting": "[3]", "value": 40.6}
    ]},
    {"smiles": "CC(C)Cc1ccc(C(C)C(=O)O)cc1", "note": "(stereo not shown) [Ibuprofen, ibuprofen]", "values": [
      {"measurement": "Experimental. %HIA", "setting": "[2]; ref Newby et al. (2015)", "value": 98, "unit": "%"},
      {"measurement": "PSA", "setting": "[3]", "value": 37.3}
    ]},
    {"smiles": "CN/C(=N/CCSCc1nc[nH]c1C)NC#N", "note": "[Cimetidine, cimetidine]", "values": [
      {"measurement": "Experimental. %HIA", "setting": "[2]; ref Castillo‐Garit et al. (2014), Linnankoski, Mäkelä, Ranta, Urtti, & Yliperttula (2006)", "value": 68, "unit": "%"},
      {"measurement": "PSA", "setting": "[3]", "value": 88.89}
    ]},
    {"smiles": "C[C@H](CCC(=O)NCC(=O)[O-])[C@H]1CC[C@H]2[C@@H]3[C@H](O)C[C@@H]4C[C@H](O)CC[C@]4(C)[C@H]3C[C@H](O)[C@]12C.[Na+]", "note": "[NaGC, sodium glycocholate]", "values": [
      {"measurement": "CMC", "setting": "[1]; ref Natalini et al., 2014", "value": 9, "unit": "mM"}
    ]},
    {"smiles": "CC(C(=O)O)c1cccc(Oc2ccccc2)c1", "note": "(stereo not shown) [Fenoprofen, fenoprofen]", "values": [
      {"measurement": "Experimental. %HIA", "setting": "[2]; ref Hou, Wang, Zhang, & Xu (2007)", "value": 85, "unit": "%"},
      {"measurement": "PSA", "setting": "[3]", "value": 46.5}
    ]},
    {"smiles": "O=C(O)Cc1ccccc1Nc1c(Cl)cccc1Cl", "note": "[Diclofenac, diclofenac]", "values": [
      {"measurement": "Experimental. %HIA", "setting": "[2]; ref Veber et al. (2002)", "value": 54, "unit": "%"}
    ]},
    {"smiles": "CC(C)(C)NCC(O)c1cc(O)cc(O)c1", "note": "(stereo not shown) [Terbutaline, terbutaline]", "values": [
      {"measurement": "Experimental. %HIA", "setting": "[2]; ref Grès et al. (1998)", "value": 25, "unit": "%"},
      {"measurement": "PSA", "setting": "[3]", "value": 72.7}
    ]},
    {"smiles": "CC(C(=O)O)c1ccc(-c2ccccc2)c(F)c1", "note": "(stereo not shown) [Flurbiprofen, flurbiprofen]", "values": [
      {"measurement": "Experimental. %HIA", "setting": "[2]; ref Raevsky (2004)", "value": 92, "unit": "%"},
      {"measurement": "PSA", "setting": "[3]", "value": 37.3}
    ]},
    {"smiles": "C[C@H](CCC(=O)NCCS(=O)(=O)O)[C@H]1CC[C@H]2[C@@H]3[C@H](O)C[C@@H]4C[C@H](O)CC[C@]4(C)[C@H]3C[C@H](O)[C@]12C", "note": "[NaTC, sodium taurocholate]", "values": [
      {"measurement": "CMC", "setting": "[1]; ref Natalini et al., 2014", "value": 4, "unit": "mM"}
    ]},
    {"smiles": "OC(Cn1cncn1)(Cn1cncn1)c1ccc(F)cc1F", "note": "[Fluconazole, fluconazole]", "values": [
      {"measurement": "PSA", "setting": "[3]", "value": 81.6}
    ]},
    {"smiles": "C[C@H](CCC(=O)[O-])[C@H]1CC[C@H]2[C@@H]3[C@H](O)C[C@@H]4C[C@H](O)CC[C@]4(C)[C@H]3C[C@H](O)[C@]12C.[Na+]", "note": "[NaC, sodium cholate]", "values": [
      {"measurement": "CMC", "setting": "[1]; ref Reis et al., 2004", "value": 7.5, "unit": "mM"}
    ]},
    {"smiles": "CC(C(=O)O)c1cccc(C(=O)c2ccccc2)c1", "note": "(stereo not shown) [Ketoprofen, ketoprofen]", "values": [
      {"measurement": "PSA", "setting": "[3]", "value": 54.4}
    ]},
    {"smiles": "CC(=O)Nc1ccc(O)cc1", "note": "[Acetaminophen, acetaminophen]", "values": [
      {"measurement": "Experimental. %HIA", "setting": "[2]; [4]", "value": 100, "unit": "%"},
      {"measurement": "PSA", "setting": "[3]", "value": 49.3}
    ]},
    {"smiles": "Cn1c(=O)c2[nH]cnc2n(C)c1=O", "note": "[Theophylline, theophylline]", "values": [
      {"measurement": "Experimental. %HIA", "setting": "[2]; ref Kansy, Senner, & Gubernator (1998)", "value": 98, "unit": "%"},
      {"measurement": "PSA", "setting": "[3]", "value": 69.3}
    ]},
    {"smiles": "C[C@H](CCC(=O)NCC(=O)[O-])[C@H]1CC[C@H]2[C@@H]3CC[C@@H]4C[C@H](O)CC[C@]4(C)[C@H]3C[C@H](O)[C@]12C.[Na+]", "note": "[NaGDC, sodium glycodeoxycholate]", "values": [
      {"measurement": "CMC", "setting": "[1]; ref Natalini et al., 2014", "value": 2.2, "unit": "mM"}
    ]},
    {"smiles": "O=C(O)c1cccnc1", "note": "[Nicotinic acid, nicotinic acid]", "values": [
      {"measurement": "Experimental. %HIA", "setting": "[2]; ref Newby et al. (2015)", "value": 94, "unit": "%"}
    ]},
    {"smiles": "CC(=O)Oc1ccccc1C(=O)O", "note": "[Acetylsalicylic acid, acetyl salicylic acid]", "values": [
      {"measurement": "Experimental. %HIA", "setting": "[2]; [4]", "value": 82, "unit": "%"},
      {"measurement": "PSA", "setting": "[3]", "value": 63.6}
    ]},
    {"smiles": "NC(=O)N1c2ccccc2C=Cc2ccccc21", "note": "[Carbamazepine, carbamazepine]", "values": [
      {"measurement": "Experimental. %HIA", "setting": "[2]; ref Dressman, Amidon, & Fleisher (1985), Varma, Sateesh, & Panchagnula (2005)", "value": 84, "unit": "%"},
      {"measurement": "PSA", "setting": "[3]", "value": 46.3}
    ]},
    {"smiles": "CN(C)CCc1c[nH]c2ccc(C[C@H]3COC(=O)N3)cc12", "note": "[Zolmitriptan, zolmitriptan]", "values": [
      {"measurement": "Experimental. %HIA", "setting": "[2]; ref Newby et al. (2015)", "value": 92, "unit": "%"},
      {"measurement": "PSA", "setting": "[3]", "value": 57.4}
    ]},
    {"smiles": "COc1ccc2cc([C@H](C)C(=O)O)ccc2c1", "note": "[Naproxen, naproxen]", "values": [
      {"measurement": "Experimental. %HIA", "setting": "[2]; [4]", "value": 94, "unit": "%"}
    ]}
  ]
}
